# Experimental data as given in PubChem BioAssay (NCI).
# Several values for one entry are separate records, joined by “and”; a condition that tells them apart may be missing. Identical values can stand only once.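 1) Cells in 96-well plates. 2) Compound, 48 h, 5 concentrations. 3) Linear interpolation between surrounding doses. 4) Unreached endpoint = highest concentration. GI50: concentration for 50% inhibition of growth. TGI is the concentration that stops growth completely.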
# Columns and labels:
# Assay in all cases: inhibition of tumour cell growth, NCI panel, 48 h
# SK-OV-3 ovarian = test system: SK-OV-3 ovarian
# UACC-257 melanoma = test system: UACC-257 melanoma
# ACHN renal = test system: ACHN renal
# KM12 colon = test system: KM12 colon
# HCT-15 colon = test system: HCT-15 colon
# RPMI-8226 leukemia = test system: RPMI-8226 leukemia
# HOP-92 NSCLC = test system: HOP-92 NSCLC
# M14 melanoma = test system: M14 melanoma
# CAKI-1 renal = test system: CAKI-1 renal
# A549 NSCLC = test system: A549 NSCLC
SMILES,GI50 (SK-OV-3 ovarian),TGI (SK-OV-3 ovarian),GI50 (UACC-257 melanoma) [µM],TGI (UACC-257 melanoma) [µM],GI50 (ACHN renal) [nM],TGI (ACHN renal),GI50 (KM12 colon) [nM],TGI (KM12 colon),GI50 (HCT-15 colon) [nM],TGI (HCT-15 colon),GI50 (RPMI-8226 leukemia),TGI (RPMI-8226 leukemia),GI50 (HOP-92 NSCLC) [nM],TGI (HOP-92 NSCLC),GI50 (M14 melanoma) [nM],TGI (M14 melanoma),GI50 (CAKI-1 renal),TGI (CAKI-1 renal),GI50 (A549 NSCLC) [nM],TGI (A549 NSCLC) [µM]
COc1ccc2c(c1)CC[C@@H]1[C@@H]2CC[C@]2(C)C(c3ccco3)=C(C=O)C[C@@H]12,28.9 µM,77.7 µM,21.7,44.6,3560,13.5 µM,3350,12.2 µM,4190,26.7 µM,3890 nM,32.7 µM,8380,28 µM,5240,30.5 µM,2500 nM,7.59 µM,26100,65.1
CN(C)CCNC(=O)c1cccc2[nH]c(-c3ccccc3)nc12,–,56.3 µM,–,30.6,–,33.3 µM,–,66.4 µM,–,34.5 µM,–,91.5 µM,–,42.1 µM,–,31.1 µM,–,92.9 µM,–,31.7
Nc1ncnc2c1ncn2C1OC(CO)=CC1O (configuration not stated),–,> 37.5 µM,–,> 37.5,–,> 37.5 µM,–,> 37.5 µM,–,> 37.5 µM,–,> 37.5 µM,–,> 37.5 µM,–,> 37.5 µM,–,> 37.5 µM,–,> 37.5
CC12CCC[C@@](C)(C(=O)OC3OC(CO)C(O)C(O)C3O)[C@H]1CCC13CC4CC(OC4(CO)[C@H]1O)[C@@H]23 (some centres not stated),–,> 100 µM,–,> 100,–,> 100 µM,–,> 100 µM,–,> 100 µM,–,> 100 µM,–,> 100 µM,–,> 100 µM,–,> 100 µM,–,> 100
NS(=O)(=O)c1ccc(CCN=C=S)cc1,18.2 µM,32.4 µM,2.74,9.24,1850,3.65 µM,1470,3.06 µM,1300,3.37 µM,667 nM,5.2 µM,1330,3.36 µM,2090,4.51 µM,1530 nM,3.03 µM,2030,4.85
Cc1ccccc1CN1CC=c2ccccc2=N1,–,> 100 µM,–,> 100,–,> 100 µM,–,> 100 µM,–,> 100 µM,–,> 100 µM,–,> 100 µM,–,> 100 µM,–,> 100 µM,–,> 100
CCCCCCCC[N+](C)(CCCCCCCC)CCCCCCCC,0.468 µM,1.71 µM,0.37,1.15,427,1.46 µM,213,0.575 µM,715,2.1 µM,46.3 nM,0.242 µM,214,0.803 µM,388,1.63 µM,83.8 nM,0.639 µM,1360,3.08
C=C1C(=O)O[C@H]2[C@H]1CC/C(COC(=O)NCc1c[nH]c3ccc(Cl)cc13)=C\CC[C@@]1(C)O[C@@H]21,5.75 µM,18.9 µM,1.63,3.11,1330,2.61 µM,2370,6.28 µM,615,1.95 µM,836 nM,3.51 µM,1460,3.01 µM,1400,2.91 µM,1450 nM,2.81 µM,1700,3.43
CCn1cnc2c(Nc3cccc(Cl)c3)nc(N[C@@H]3CCCC[C@@H]3N)nc21,3.85 µM,10.8 µM,1.57,3.11,1340,3.6 µM,733,2.67 µM,2080,8.75 µM,1800 nM,4.39 µM,1040,3.57 µM,1440,2.98 µM,2600 nM,10.1 µM,2090,8.6
COc1ccc([N+](=O)[O-])c(S(=O)(=O)c2ccc(Cl)cc2)n1,15.1 µM,31.9 µM,11.3,23.7,2080,4.11 µM,14000,27.8 µM,2050,5.22 µM,3380 nM,51.9 µM,2000,6.17 µM,3050,10.1 µM,1610 nM,3.01 µM,18500,41.9
NC1=N/C(=C2/CCNC(=O)c3[nH]c(Br)cc32)C(=O)N1,7.66 µM and 16.1 µM,> 100 µM,–,> 100,–,> 100 µM,> 100000,> 100 µM,–,> 100 µM,> 79900 nM and 15600 nM,> 100 µM,–,63.8 µM and 81.5 µM,–,> 100 µM,> 33900 nM and 5680 nM,> 100 µM,–,> 100
Nc1nc2nc[nH]c2c(=O)[nH]1,–,> 100 µM,–,> 100,–,> 100 µM,–,> 100 µM,–,> 100 µM,–,> 100 µM,–,> 100 µM,–,> 100 µM,–,> 100 µM,–,> 100
CO[C@@H]1[C@H](OC(=O)NC(=O)CCl)CC[C@]2(CO2)[C@H]1[C@@]1(C)O[C@@H]1CC=C(C)C,2.52 µM and 20.8 µM,39.5 µM and 59.2 µM,8.41,28,7300,30.8 µM and 37.5 µM,3360,27.2 µM and 28.6 µM,5150,56.1 µM and 35.7 µM,5730 nM and 6140 nM,32.9 µM and 51.4 µM,–,38.5 µM,–,32.3 µM and 40.5 µM,29600 nM,25.7 µM and 59.1 µM,4250,44.2
COc1ccc(/C=C/c2n[nH]c3ccc(N4CCOC4=O)cc23)cc1,2.82 µM,9.57 µM,3.6,9.3,2640,23.2 µM,1020,27.1 µM,1120,12.5 µM,2200 nM,5.55 µM,4000,9.09 µM,1880,10.5 µM,2480 nM,> 100 µM,1660,14.2
COc1cc(C(=O)c2cc3c(cc2C)OCO3)cc(OC)c1OC,0.0874 µM,> 100 µM,91.7,> 100,289,> 100 µM,70,> 100 µM,52.8,> 100 µM,284 nM,> 67.3 µM,85.5,48.6 µM,67.1,> 100 µM,208 nM,> 100 µM,125,> 100
NS(=O)(=O)c1ccc(N2N=C3c4ccccc4CC3C2c2ccc(Cl)cc2)cc1 (configuration not stated),12.4 µM,49.4 µM,11.4,32.6,17500,31.6 µM,5540,49.8 µM,18200,38.3 µM,2730 nM,24 µM,10300,28.9 µM,10100,36.1 µM,18200 nM,32.8 µM,10800,34
COC1=CC(c2ccc[nH]2)=N/C1=C\c1ccc[nH]1,5.37 µM,18.6 µM,0.375,9.24,226,11.3 µM,69.8,12.8 µM,33.7,12.3 µM,65.1 nM,0.57 µM,199,1.26 µM,56.2,0.629 µM,151 nM,3.26 µM,201,12.6
CSc1nc2sc3cc(Cl)ccc3n2c(=N)c1C#N,12.5 µM,> 100 µM,6.05,> 100,> 62200,> 100 µM,3780,> 72 µM,> 100000,> 100 µM,> 80600 nM,> 100 µM,< 46.8,4.77 µM,> 54700,> 100 µM,17100 nM,88.2 µM,12200,> 100
CC(C)=CC(=O)Cc1nc2cc(C)c(C)cc2[nH]c1=O,–,> 100 µM,–,> 100,–,> 100 µM,–,> 100 µM,–,> 100 µM,–,> 100 µM,–,99.7 µM,–,> 100 µM,–,> 100 µM,–,> 100
O=C(/C=C\c1ccc(Cl)cc1Cl)c1cccs1,–,59.3 µM,–,36.4,–,27.9 µM,–,38.8 µM,–,34.4 µM,–,12.8 µM,–,69.1 µM,–,35.1 µM,–,80.4 µM,–,> 100
